Experimental data: patent US10294202B2, “Pyrrolidinones as herbicides” (FMC Corporation, priority 2013, dated 2019)

Assays:
windgrass = test: Test D pre-/postemergence herbicide test; type: in vivo, Apera spica-venti; conditions: for Plant response rating: Postemergence, Windgrass, scale 0 to 100; for Plant response rating, Windgrass: Preemergence, scale 0 to 100 (0 no effect, 100 complete control)
Source text: Seeds of plant species selected from bluegrass (annual bluegrass, Poa annua), blackgrass (Alopecurus myosuroides), canarygrass (littleseed canarygrass, Phalaris minor), chickweed (common chickweed, Stellaria media), galium (catchweed bedstraw, Galium aparine), bromegrass, downy (downy bromegrass, Bromus tectorum), field poppy (Papaver rhoeas), field violet (Viola arvensis), foxtail, green (green foxtail, Setaria viridis), deadnettle (henbit deadnettle, Lamium amplexicaule), ryegrass, Italian (Italian ryegrass, Lolium multiflorum), kochia (Kochia scoparia), lambsquarters (Chenopodium album), oilseed rape (Brassica napus), pigweed (Amaranthus retroflexus), chamomile (scentless chamomile, Matricaria inodora), Russian thistle (Salsola kali), speedwell (bird's-eye speedwell, Veronica persica), barley, spring (spring barley, Hordeum vulgare), wheat, spring (spring wheat, Triticum aestivum), buckwheat, wild (wild buckwheat, Polygonum convolvulus), mustard, wild (wild mustard, Sinapis arvensis), oat, wild (wild oat, Avena fatua), radish, wild (wild radish, Raphanus raphanistrum), […]), barley, winter (winter barley, Hordeum vulgare), and wheat, winter (winter wheat, Triticum aestivum) were planted into a silt loam soil and treated preemergence with test chemicals formulated in a non-phytotoxic solvent mixture which included a surfactant. At the same time, these species were planted in pots containing Redi-Earth® planting medium (Scotts Company, 14111 Scottslawn Road, Marysville, Ohio 43041) comprising spaghnum peat moss, vermiculite, wetting agent and starter nutrients and treated with postemergence applications of the test chemicals formulated in the same manner. Plants ranged in height from 2 to 18 cm (1- to 4-leaf stage). Treated plants and controls were maintained in a controlled growth environment for 7 to 21 days after which time all species were compared to controls and visually evaluated. Plant response ratings, summarized in Table D, are based on a scale of 0 to 100 where 0 is no effect and 100 is complete control. A dash (-) response means no test result.

foxtail, green = test: Test C pre-/postemergence herbicide test; type: in vivo, Setaria viridis
Source text: (§1) Seeds of plant species selected from blackgrass (Alopecurus myosuroides), ryegrass, Italian (Italian ryegrass, Lolium multiflorum), wheat (winter wheat, Triticum aestivum), galium (catchweed bedstraw, Galium aparine), corn (Zea mays), crabgrass, large (large crabgrass, Digitaria sanguinalis), foxtail, giant (giant foxtail, Setaria faberii), johnsongrass (Sorghum halepense), lambsquarters (Chenopodium album), morningglory (Ipomoea coccinea), nutsedge, yellow (yellow nutsedge, Cyperus esculentus), pigweed (Amaranthus retroflexus), ragweed (common ragweed, Ambrosia elatior), soybean (Glycine max), barnyardgrass (Echinochloa crus-galli), oilseed rape (Brassica napus), waterhemp (common waterhemp, Amaranthus rudis), kochia (Kochia scoparia), oat, wild (wild oat, Avena fatua), surinam grass (Brachiaria decumbens), foxtail, green (green foxtail, Setaria viridis), goosegrass (Eleusine indica), bromegrass, downy (downy bromegrass, Bromus tectorum), nightshade (eastern black nightshade, Solanum ptycanthum), cocklebur (common cocklebur, Xanthium strumarium), cupgrass, woolly (woolly cupgrass, Eriochloa villosa), bermudagrass (Cynodon dactylon), sunflower, (common oilseed sunflower, Helianthus annuus), Russian thistle (Salsola kali) and velvetleaf (Abutilon theophrasti) were planted into a blend of loam soil and sand and treated preemergence with test chemicals formulated in a non-phytotoxic solvent mixture which included a surfactant. At the same time, plants selected from these crop and weed species and also barley (winter barley, Hordeum vulgare), […]), chickweed (common chickweed, Stellaria media), deadnettle (henbit deadnettle, Lamium amplexicaule), and canarygrass (littleseed canarygrass, Phalaris minor) were planted in pots containing Redi-Earth® planting medium (Scotts Company, 14111 Scottslawn Road, Marysville, Ohio 43041) comprising spaghnum peat moss, vermiculite, wetting agent and starter nutrients and treated with postemergence applications of test chemicals formulated in the same manner. Plants ranged in height from 2 to 18 cm (1- to 4-leaf stage) for postemergence treatments. Treated plants and controls were maintained in a greenhouse for 13 to 15 days, after which time all species were compared to controls and visually evaluated. Plant response ratings, summarized in Table C, are based on a scale of 0 to 100 where 0 is no effect and 100 is complete control. A dash (-) response means no test result.

bermudagrass = test: Test C pre-/postemergence herbicide test; type: in vivo, Cynodon dactylon
Source text: as §1

[1] = Preemergence, 62 g ai/ha, scale 0 to 100
[2] = Preemergence, 125 g ai/ha, scale 0 to 100 (0 no effect, 100 complete control)
[3] = Preemergence, 31 g ai/ha, scale 0 to 100 (0 no effect, 100 complete control)
[4] = Preemergence, 250 g ai/ha, scale 0 to 100 (0 no effect, 100 complete control)
[5] = Postemergence, 16 g ai/ha, scale 0 to 100 (0 no effect, 100 complete control)
[6] = Postemergence, 31 g ai/ha, scale 0 (no effect) to 100 (complete control)
[7] = Postemergence, 62 g ai/ha, scale 0 to 100 (0 no effect, 100 complete control)
[8] = Postemergence, 125 g ai/ha, scale 0 to 100 (0 no effect, 100 complete control)
[9] = Preemergence, 16 g ai/ha, scale 0 to 100
[10] = Postemergence, 250 g ai/ha, scale 0 to 100 (0 no effect, 100 complete control)
[11] = Preemergence, 31 g ai/ha, scale 0 to 100, 0 is no effect and 100 is complete control

Row | Structure (SMILES) | Plant response rating (windgrass; 16 g ai/ha) | Plant response rating (windgrass; 31 g ai/ha) | Plant response rating (windgrass; 62 g ai/ha) | Plant response rating (windgrass; 125 g ai/ha) | Plant response rating, Windgrass (windgrass; 62 g ai/ha) | Plant response rating, Windgrass (windgrass; 125 g ai/ha) | Plant response rating, Windgrass (windgrass; 31 g ai/ha) | Plant response rating, Windgrass (windgrass; 250 g ai/ha) | Plant response rating, Foxtail, Green (foxtail, green; [1]) | Plant response rating, Foxtail, Green (foxtail, green; [2]) | Foxtail, Green plant response rating (foxtail, green; [3]) | Plant response rating, Bermudagrass (bermudagrass; [1]) | Plant response rating, Bermudagrass (bermudagrass; [2]) | Bermudagrass plant response rating (bermudagrass; [3]) | Plant response rating, Foxtail, Green (foxtail, green; [6]) | Plant response rating, Foxtail, Green (foxtail, green; [7]) | Plant response rating, Foxtail, Green (foxtail, green; [8]) | Plant response rating, Bermudagrass (bermudagrass; [6]) | Plant response rating, Bermudagrass (bermudagrass; [7]) | Plant response rating, Bermudagrass (bermudagrass; [8]) | also measured
1 | O=C1NCC(c2ccc(F)c(F)c2)C1C(=O)Nc1ccccc1C(F)(F)F (racemic) [Compound 6] | 0 | 0 | 0 | 0 | 0 | 100 | 0 | 100 | – | – | – | – | – | – | – | – | – | – | – | – | Plant response rating (windgrass; 250 g ai/ha): 0; Plant response rating, Windgrass (windgrass; 16 g ai/ha): 0
2 | O=C1NCC(c2ccc(F)c(C(F)(F)F)c2)C1C(=O)Nc1cccc(F)c1F (racemic) [Compound 77] | – | – | – | – | 85 | 90 | 45 | 95 | – | – | – | – | – | – | – | – | – | – | – | – | –
3 | O=C1NCCC1C(=O)N(c1ccc(F)c(F)c1)c1ccccc1F (stereo not drawn) [Compound 5, N-(3,4-difluorophenyl)-N-(2-fluorophenyl)-2-oxo-3-pyrrolidinecarboxamide] | – | – | – | – | – | – | – | – | 90 | 90 | 85 | 0 | 20 | 0 | – | – | – | – | – | – | Plant response rating, Foxtail, Green (foxtail, green; [4]): 95; Plant response rating, Bermudagrass (bermudagrass; [4]): 45
4 | O=C1NCC(c2cc(F)c(F)c(F)c2)C1C(=O)Nc1cccc(F)c1F (stereo not drawn) [Compound 48] | – | – | – | – | – | – | – | – | 90 | 90 | 80 | 0 | 0 | 0 | 0 | 0 | 65 | 0 | 0 | 10 | Plant response rating, Foxtail, Green (foxtail, green; [5]): 0; Plant response rating, Foxtail, Green (foxtail, green; [9]): 70; Plant response rating, Bermudagrass (bermudagrass; [5]): 0; Plant response rating, Bermudagrass (bermudagrass; [9]): 0
5 | O=C1NCC(c2cc(F)c(F)cc2F)C1C(=O)Nc1cccc(F)c1F (stereo not drawn) [Compound 50] | 0 | 0 | 0 | 0 | 5 | 0 | 0 | – | – | – | – | – | – | – | 0 | 0 | 0 | 0 | 0 | 0 | Plant response rating, Foxtail, Green (foxtail, green; [10]): 30; Plant response rating, Bermudagrass (bermudagrass; [10]): 0; Plant response rating, Windgrass (windgrass; 16 g ai/ha): 0
6 | O=C1NCC(c2ccc(Cl)c(F)c2)C1C(=O)Nc1cccc(F)c1F (stereo not drawn) [Compound 52] | 0 | 0 | 0 | 0 | 0 | 40 | 0 | 60 | 90 | 90 | 80 | 40 | 40 | 0 | 0 | 10 | 30 | 0 | 0 | 0 | Plant response rating, Foxtail, Green (foxtail, green; [10]): 80; Plant response rating, Foxtail, Green (foxtail, green; [4]): 90; Plant response rating, Bermudagrass (bermudagrass; [10]): 10; Plant response rating, Bermudagrass (bermudagrass; [4]): 65; Plant response rating (windgrass; 250 g ai/ha): 0; Plant response rating, Windgrass (windgrass; 16 g ai/ha): 0
7 | O=C1NCC(c2ccc(F)c(Cl)c2)C1C(=O)Nc1ccccc1F (stereo not drawn) [Compound 60] | – | – | – | – | – | – | – | – | 90 | 90 | 90 | 0 | 0 | 0 | 20 | 35 | 45 | 0 | 0 | 0 | –
8 | O=C1NCC(c2cccc(OC(F)(F)F)c2)C1C(=O)Nc1ccccc1F (stereo not drawn) [Compound 69] | – | – | – | – | – | – | – | – | 90 | 95 | – | 35 | 50 | – | – | – | – | – | – | – | Foxtail, Green plant response rating (foxtail, green; [11]): 90; Plant response rating (scale of 0 to 100), Foxtail, Green (foxtail, green; Preemergence, 250 g ai/ha): 95; Bermudagrass plant response rating (bermudagrass; [11]): 35; Plant response rating (scale of 0 to 100), Bermudagrass (bermudagrass; Preemergence, 250 g ai/ha): 55
9 | O=C1NCC(c2ccc(C(F)(F)F)cc2)C1C(=O)Nc1ccccc1F (stereo not drawn) [Compound 231] | – | 0 | 5 | 0 | 70 | 75 | 55 | 85 | – | – | – | – | – | – | – | – | – | – | – | – | Plant response rating (windgrass; 250 g ai/ha): 15
